Among the data in PubChem BioAssay AID1259407 (Chemical Carcinogenesis Research Information System (CCRIS), 2018) are mutagenic call values, retold here.

Each structure is given as a SMILES string. The source made the active and inactive calls. How the calls were made is not given here.

In this data set the test system is CCRIS mutagenicity, Ames/micronucleus/aberration tests. In words: CCRIS mutagenicity studies.
The mark [1] stands for this setting: Test System: AMES SALMONELLA TYPHIMURIUM, Strain/Indicator: TA98, Metabolic Activation: NONE, Method: PREINCUBATION
The mark [2] stands for this setting: Test System: AMES SALMONELLA TYPHIMURIUM, Strain/Indicator: TA100, Metabolic Activation: NONE, Method: PREINCUBATION
Setting [3] is: Test System: AMES SALMONELLA TYPHIMURIUM, Strain/Indicator: TA100, Metabolic Activation: NONE, Method: STANDARD PLATE.
The mark [4] stands for this setting: Test System: AMES SALMONELLA TYPHIMURIUM, Strain/Indicator: TA102, Metabolic Activation: NONE, Method: STANDARD PLATE.
Setting [5] is: Test System: AMES SALMONELLA TYPHIMURIUM, Strain/Indicator: TA98, Metabolic Activation: NONE, Method: STANDARD PLATE.

Turning to `O=C(O)c1cc([N+](=O)[O-])cc([N+](=O)[O-])c1`, the mutagenic call is “active; positive” under setting [1]; “active; positive” (Test System: AMES SALMONELLA TYPHIMURIUM, Strain/Indicator: TA98, Metabolic Activation: RAT, LIVER, S-9, KANECHLOR 500, Method: PREINCUBATION); “active; positive” under setting [2]; “active; positive” (Test System: AMES SALMONELLA TYPHIMURIUM, Strain/Indicator: TA100, Metabolic Activation: RAT, LIVER, S-9, KANECHLOR 500, Method: PREINCUBATION).

In the case of `C/C=C1/C[C@@H](C)[C@](O)(CO)C(=O)OCC2=CC[N+]3([O-])CC[C@@H](OC1=O)[C@@H]23` (some centres undefined), the mutagenic call (Test System: AMES SALMONELLA TYPHIMURIUM, Strain/Indicator: TA100, Metabolic Activation: RAT, LIVER, S-9, SODIUM PHENOBARBITAL AND BETA-NAPHTHOFLAVONE, Method: PREINCUBATION) was “inactive; negative”.

Regarding `NC(=O)c1ccc(N)nc1`, the mutagenic call is, setting by setting: (Test System: CHINESE HAMSTER OVARY, Strain/Indicator: CHO/6-THIOGUANINE, Metabolic Activation: NONE) “inactive; negative”; (Test System: CHINESE HAMSTER OVARY, Strain/Indicator: CHO/6-THIOGUANINE, Metabolic Activation: RAT, LIVER, S-9) “inactive; negative”; (Test System: CHINESE HAMSTER OVARY, Strain/Indicator: CHO/OUABAIN, Metabolic Activation: NONE) “inactive; negative”; (Test System: CHINESE HAMSTER OVARY, Strain/Indicator: CHO/OUABAIN, Metabolic Activation: RAT, LIVER, S-9) “inactive; negative”.

For `CC(=O)ON(OCc1ccc(Oc2ccccc2)cc1)C(=O)c1ccccc1`, the mutagenic call reads like this: under setting [3], “active; positive”; (Test System: AMES SALMONELLA TYPHIMURIUM, Strain/Indicator: TA100, Metabolic Activation: RAT, S-9, AROCLOR, Method: STANDARD PLATE) “active; positive”.

`CC[C@@]1(O)C[C@H](O[C@H]2C[C@H](N(C)C)[C@H](O[C@H]3C[C@H](O)[C@H](O)[C@H](C)O3)C(C)O2)c2c(cc3c(c2O)C(=O)c2c(O)ccc(O)c2C3=O)[C@H]1C(=O)OC` (some centres undefined): the mutagenic call reads like this: under setting [4], “active; positive”; (Test System: AMES SALMONELLA TYPHIMURIUM, Strain/Indicator: TA104, Metabolic Activation: NONE, Method: STANDARD PLATE) “active; positive”.

For `CC(=O)c1ccc(N)cc1`, under “Test System: E. COLI, Strain/Indicator: WP2 UVRA, Metabolic Activation: NONE, Method: FLUCTUATION TEST”, the mutagenic call is “inactive; negative”.

For `C=CC(=O)OCCOC1CC2CC1C1CC=CC21` (centres undefined), the mutagenic call (Test System: MOUSE LYMPHOMA, Strain/Indicator: L5178Y (TK+/TK-), Metabolic Activation: NONE, Method: SUSPENSION/PLATE) was “active; positive”.

Take `CC(=O)Nc1ccc(S(=O)(=O)c2ccc(NC(C)=O)cc2)cc1`: the mutagenic call under setting [5] is “inactive; negative”; the mutagenic call (Test System: AMES SALMONELLA TYPHIMURIUM, Strain/Indicator: TA98, Metabolic Activation: RAT, LIVER, S-9, PCB, Method: STANDARD PLATE) was “inactive; negative”; the mutagenic call under setting [3] is “inactive; negative”; the mutagenic call (Test System: AMES SALMONELLA TYPHIMURIUM, Strain/Indicator: TA100, Metabolic Activation: RAT, LIVER, S-9, PCB, Method: STANDARD PLATE) is “inactive; negative”.

Consider `O=C(O)/C(Cl)=C(\CO)C(Cl)Cl`, for which the mutagenic call (Test System: AMES SALMONELLA TYPHIMURIUM, Strain/Indicator: TA97, Metabolic Activation: NONE, Method: STANDARD PLATE) was “active; positive”; the mutagenic call (Test System: AMES SALMONELLA TYPHIMURIUM, Strain/Indicator: TA97, Metabolic Activation: RAT, LIVER, S-9, PHENOBARBITAL, Method: STANDARD PLATE) is “inactive; negative”; the mutagenic call under setting [5] was “inactive; negative”; the mutagenic call (Test System: AMES SALMONELLA TYPHIMURIUM, Strain/Indicator: TA98, Metabolic Activation: RAT, LIVER, S-9, PHENOBARBITAL, Method: STANDARD PLATE) is “inactive; negative”; the mutagenic call under setting [3] is “active; positive”; the mutagenic call (Test System: AMES SALMONELLA TYPHIMURIUM, Strain/Indicator: TA100, Metabolic Activation: RAT, LIVER, S-9, PHENOBARBITAL, Method: STANDARD PLATE) was “inactive; negative”.

On to `CCCCCCCOc1ccccc1NC(=O)OC(C)CN(CC)CC` (centres undefined), for which the mutagenic call (Test System: AMES SALMONELLA TYPHIMURIUM, Strain/Indicator: TA98, Metabolic Activation: MOUSE, LIVER, S-9, AROCLOR 1254, Method: PREINCUBATION) was “inactive; negative”; the mutagenic call under setting [1] was “inactive; negative”; the mutagenic call (Test System: AMES SALMONELLA TYPHIMURIUM, Strain/Indicator: TA100, Metabolic Activation: MOUSE, LIVER, S-9, AROCLOR 1254, Method: PREINCUBATION) is “inactive; negative”; the mutagenic call under setting [2] is “inactive; negative”; the mutagenic call (Test System: AMES SALMONELLA TYPHIMURIUM, Strain/Indicator: TA1535, Metabolic Activation: MOUSE, LIVER, S-9, AROCLOR 1254, Method: PREINCUBATION) is “inactive; negative”; the mutagenic call (Test System: AMES SALMONELLA TYPHIMURIUM, Strain/Indicator: TA1535, Metabolic Activation: NONE, Method: PREINCUBATION) was “inactive; negative”. In addition, the mutagenic call by setting is: (Test System: AMES SALMONELLA TYPHIMURIUM, Strain/Indicator: TA1538, Metabolic Activation: MOUSE, LIVER, S-9, AROCLOR 1254, Method: PREINCUBATION) “inactive; negative”; (Test System: AMES SALMONELLA TYPHIMURIUM, Strain/Indicator: TA1538, Metabolic Activation: NONE, Method: PREINCUBATION) “inactive; negative”; (Test System: AMES SALMONELLA TYPHIMURIUM, Strain/Indicator: TA1978, Metabolic Activation: MOUSE, LIVER, S-9, AROCLOR 1254, Method: PREINCUBATION) “inactive; negative”; (Test System: AMES SALMONELLA TYPHIMURIUM, Strain/Indicator: TA1978, Metabolic Activation: NONE, Method: PREINCUBATION) “inactive; negative”; (Test System: E. COLI, Strain/Indicator: CM611 UVRA/LEXA, Metabolic Activation: MOUSE, LIVER, S-9, AROCLOR 1254, Method: PREINCUBATION) “inactive; negative”; (Test System: E. COLI, Strain/Indicator: CM611 UVRA/LEXA, Metabolic Activation: NONE, Method: PREINCUBATION) “inactive; negative”. The mutagenic call was “inactive; negative” (Test System: E. COLI, Strain/Indicator: WP2, Metabolic Activation: MOUSE, LIVER, S-9, AROCLOR 1254, Method: PREINCUBATION); “inactive; negative” (Test System: E. COLI, Strain/Indicator: WP2, Metabolic Activation: NONE, Method: PREINCUBATION); “inactive; negative” (Test System: E. COLI, Strain/Indicator: WP2 UVRA, Metabolic Activation: MOUSE, LIVER, S-9, AROCLOR 1254, Method: PREINCUBATION); “inactive; negative” (Test System: E. COLI, Strain/Indicator: WP2 UVRA, Metabolic Activation: NONE, Method: PREINCUBATION); “inactive; negative” (Test System: E. COLI, Strain/Indicator: WP67 UVRA/POLA, Metabolic Activation: MOUSE, LIVER, S-9, AROCLOR 1254, Method: PREINCUBATION); “inactive; negative” (Test System: E. COLI, Strain/Indicator: WP67 UVRA/POLA, Metabolic Activation: NONE, Method: PREINCUBATION).

Consider `O=[N+]([O-])c1ccnc2ccccc12`, for which the mutagenic call is “active; positive” (Test System: AMES SALMONELLA TYPHIMURIUM, Strain/Indicator: TA1538, Metabolic Activation: RAT, LIVER, S-9, KC500 OR PHENOBARBITAL, Method: LIQUID SUSPENSION) and “active; positive” (Test System: UDS RODENT PRIMARY CELLS, Strain/Indicator: THY INCORP (NON-S-PHASE), Metabolic Activation: NONE, Method: AUTORADIOGRAPHY).

As for `CCCCOO`, the mutagenic call under setting [3] was “inactive; negative” and the mutagenic call under setting [4] is “active; positive”.

In the case of `CCCCCCCC(O)C=CC=O` (centres undefined), the mutagenic call is “active; positive” (End Point: IN VITRO CHROMOSOMAL ABERRATIONS, Test System: RAT HEPATOCYTES, Metabolic Activation: NONE) and “inactive; negative” (End Point: IN VITRO MICRONUCLEUS, Test System: RAT HEPATOCYTES, Metabolic Activation: NONE).
